Patent US8710045B2, “Agents for preventing and treating disorders involving modulation of the ryanodine receptors” (The Trustees of Columbia University in the City of New York, priority 2004, dated 2014)
Where two headings read alike, the source gives them in different places.

Key:
hERG = hERG (Homo sapiens, UniProt Q12809); assay: hERG current, manual whole-cell patch clamp in hERG-transfected HEK 293 cells (Example 5); type: cell-based; set-up: expressed in transfected cells; host or cells: HEK 293; conditions: human, HEK 293 cells stably transfected with hERG cDNA
Protocol: (§1) Electrophysiological recordings (using the whole-cell patch clamp method) were performed at room temperature (18° C.-24° C.). Each cell acted as its own control. The effect of ARM0036 was evaluated at two concentrations: 10 and 100 μM. Each concentration was tested in at least three cells (n≧3). 90 nM Cisapride (commercially available from TOCRIS Bioscience) was used as a positive control for hERG blockade. For recording, cells were transferred to the recording chamber and superfused with vehicle control solution. The patch pipette solution for whole cell recording contained 130 mM potassium aspartate, 5 mM MgCl2, 5 mM EGTA, 4 mM ATP and 10 mM HEPES. The pH was adjusted to 7.2 with KOH. The pipette solution was prepared in batches, aliquoted, and stored frozen. A fresh aliquot was thawed and used each day. Patch pipettes were made from glass capillary tubing using a P-97 micropipette puller (Sutter Instruments, Novato, Calif.). A commercial patch clamp amplifier was used for whole cell recordings. Before digitization, current records were low-pass filtered at one-fifth of the sampling frequency.

hERG current = hERG current (Homo sapiens, UniProt Q12809); assay: as above; type: cell-based; set-up: expressed in transfected cells; host or cells: HEK 293
Protocol: as §1

PKA-phosphorylated RyR2 = molecular target: T1, PKA-phosphorylated RyR2 (Homo sapiens, UniProt Q92736); assay: FKBP12.6 rebinding assay: FKBP12.6 binding to PKA-phosphorylated RyR2 in cardiac SR
T1 construct: from tissue
Protocol: Samples are centrifuged at 95,000 g for 10 min and the pellets are washed three times in 0.2 ml imidazole buffer. The final pellets are pooled and resuspended in imidazole buffer (final concentration≈10 μg/μl). […] Samples then are centrifuged at 100,000 g for 10 minutes and pellets washed 3 times with imidizol buffer. […] Immunoblots are developed using an anti-FKBP antibody (1:3,000 dilution). […] The intracellular solution contains (in mM): CsCl, 60; CaCl2, 1; EGTA, 11; MgCl2, 1; K2ATP, 5; HEPES, 10; aspartic acid, 50; pH 7.4 (CsOH). Under these conditions, it is expected that the measured current was carried by Ba^2+ primarily through L-type calcium channels which is referred to as ICa,L. Drugs are applied by a local solution changer and reach the cell membrane within 1 s.
The FKBP12.6 rebinding assay described above is used to determine the amount of FKBP12.6 binding to PKA-phosphorylated RyR2 at various concentrations (0.5-1000 nM) of the compounds shown. EC50 values are calculated using Michaelis-Menten curve fitting.
The EC50 values are calculated using Michaelis-Menten curve fitting.

C57BL/6J mice = assay: S107 chronic exercise model: treadmill run to exhaustion; type: in vivo, mouse
Protocol: Mice were allowed to recover for three days prior to the initiation of exercise. Standard food and water were provided ad libitum through the experiment.
Chronic Exercise Model: The daily swimming protocol consisted of twice-daily swimming sessions separated by a one-hour rest period. After an initial conditioning regimen lasting 5 days during which the swimming sessions were increased in 10 minute increments from 40 minutes each to 80 minutes each, the swimming sessions thereafter lasted 90 minutes each. A 30 cm wide by 30 cm long opaque acrylic tank was filled with tap water to a depth of at least 20 cm. Water was circulated and warmed to 32-34° C. using a separate reservoir with heating element, thermostat, and pump. 8 mice, balanced pair-wise with respect to genotype and/or treatment group, swam at any one time in the tank.
Treadmill performance: A Columbus Instruments (Columbus, Ohio) treadmill (Model: Exer-6M Treadmill with Treadmill Shock Detection Unit) with 6 lanes was used to run the mice. Mice were placed in their respective lanes with the shocking apparatus turned off and allowed to adjust to the surroundings for 10 minutes. The forward half of the treadmill was covered with aluminum foil to block out light and a desk lamp illuminated the shocking area at the rear of the treadmill. After the adjustment period, the treadmill was set to 10 meters/min, and the mice were trained to run with gentle prodding for 6 minutes. The electric current was then turned on, and the number of shocks delivered during the next two three minute intervals (training period) were recorded. The shock counter was then reset and visits to the shocking area and shocks delivered to each mouse were recorded at three-minute intervals until the end of the experiment. At regular intervals, the speed of the treadmill was ramped up from the initial 10 m/min to 24 m/min. The speed was increased no more than 2 m/min every 6 minutes. Task failure was defined when a mouse could not continue running despite gentle prodding.
Age and sex-matched WT mice were randomized to receive osmotic pumps containing either S107 or vehicle. […] Exercise capacity was assessed once a week by a level treadmill run to exhaustion during the nocturnal cycle of the mouse. The mice were not exercised on the same day as treadmill assessments. […] These studies are complicated by the training effect of repeated exercise which leads to improved performance due to enhanced musculature. Isometric force production was measured in EDL muscles in a tissue bath during field stimulation.

[1] = Plasma creatine kinase (CPK) activity in chronically exercised mice; type: in vivo, mouse
Protocol: Calpain and Creatine Kinase Assays: Tissue calpain activities were measured using a calpain activity assay kit (Calbiochem, San Diego, Calif.) (FIG. 42B). This assay is based on the degradation of the fluorescent peptide substrate Suc-LLVY-AMC (Calbiochem). Muscle homogenates were diluted to a final concentration of 600 μg/ml and the calpain activity in the homogenate was determined as per manufactures instructions. Plasma creatine kinase (CK) activity was assayed using the regent kit from Pointe Scientific, Inc. (Canton, Mich.) (FIG. 42A). Plasma samples (duplicates, 5 μl each) were added to 200 μl of CK reagent and the change in absorbance at 340 nm was recorded over 4 minutes using a plate reader. The average absorbance change per minute was used to determine the CPK levels as per manufacturer's instructions.
Reduced calpain activation in muscle tissue and reduced muscle tissue damage due to calstabin1 rebinding: One possible mechanism by which calcium released by leaky RyR1 channels impairs exercise performance is the activation of a member of the calpain family of Ca^2+-dependent neutral proteases, which are known to be responsible for muscle damage in a number of pathophysiological states. […] Calpain activity in muscle homogenates was assessed by means of the degradation of the synthetic calpain substrate Suc-LLVY-AMC, which fluoresces upon cleavage by calpain.

RyR = RyR immunoprecipitation from whole brain microsomes of exercised mice; type: in vivo, mouse; conditions: 21 days
Protocol: Tissue lysates were prepared by homogenizing the tissue (e.g., brain, cardiac, muscle) with Tissuemiser in 0.7 ml lysis buffer (pH 7.4, 10 mM HEPES, 1 mM EDTA, 20 mM NaF, 2 mM Na3 VO4, 320 mM sucrose, and protease inhibitors) and centrifuged for 15 min at 4,000×g at 4° C. The supernatant was then centrifuged for 15 min at 10,000×g at 4° C. For brain homogenates, the supernatant was centrifuged at 50,000×g at 4° C. for 30 minutes, and the pellet (microsomes) was resuspended in homogenization buffer which was supplemented with 0.9% NaCl. For brain tissue, the resuspended pellet was used for immunoprecipitation of RyR. For cardiac and muscle tissue homogenates, the supernatant of the 10,000×g spin was used for immunoprecipitation of the RyR. Protein concentrations were measured by Bradford protein assay. The sample was frozen at −80° C. until use.
100 μg of microsomes were brought to a volume of 500 μl with modified RIP A buffer (50 mM Tris-HCl (PH 7.4), 0.9% NaCl, 5.0 mM NaF, 1.0 mM Na3VO4, 0.5% TritonX100, and protease inhibitors). […] The sample was incubated with 40 μl of Protein A Sepharose beads and rotated for 1 hr at 4° C. […]
Ryanodine receptor (types 1 and 2) was immunoprecipitated from whole brain microsomes. Immunoprecipitates were separated by 4-20% PAGE and analyzed for total RyR, PKA phosphorylated RyR, and calstabin.

hERG, sequence (Q12809 whole entry, the tested form may be a part): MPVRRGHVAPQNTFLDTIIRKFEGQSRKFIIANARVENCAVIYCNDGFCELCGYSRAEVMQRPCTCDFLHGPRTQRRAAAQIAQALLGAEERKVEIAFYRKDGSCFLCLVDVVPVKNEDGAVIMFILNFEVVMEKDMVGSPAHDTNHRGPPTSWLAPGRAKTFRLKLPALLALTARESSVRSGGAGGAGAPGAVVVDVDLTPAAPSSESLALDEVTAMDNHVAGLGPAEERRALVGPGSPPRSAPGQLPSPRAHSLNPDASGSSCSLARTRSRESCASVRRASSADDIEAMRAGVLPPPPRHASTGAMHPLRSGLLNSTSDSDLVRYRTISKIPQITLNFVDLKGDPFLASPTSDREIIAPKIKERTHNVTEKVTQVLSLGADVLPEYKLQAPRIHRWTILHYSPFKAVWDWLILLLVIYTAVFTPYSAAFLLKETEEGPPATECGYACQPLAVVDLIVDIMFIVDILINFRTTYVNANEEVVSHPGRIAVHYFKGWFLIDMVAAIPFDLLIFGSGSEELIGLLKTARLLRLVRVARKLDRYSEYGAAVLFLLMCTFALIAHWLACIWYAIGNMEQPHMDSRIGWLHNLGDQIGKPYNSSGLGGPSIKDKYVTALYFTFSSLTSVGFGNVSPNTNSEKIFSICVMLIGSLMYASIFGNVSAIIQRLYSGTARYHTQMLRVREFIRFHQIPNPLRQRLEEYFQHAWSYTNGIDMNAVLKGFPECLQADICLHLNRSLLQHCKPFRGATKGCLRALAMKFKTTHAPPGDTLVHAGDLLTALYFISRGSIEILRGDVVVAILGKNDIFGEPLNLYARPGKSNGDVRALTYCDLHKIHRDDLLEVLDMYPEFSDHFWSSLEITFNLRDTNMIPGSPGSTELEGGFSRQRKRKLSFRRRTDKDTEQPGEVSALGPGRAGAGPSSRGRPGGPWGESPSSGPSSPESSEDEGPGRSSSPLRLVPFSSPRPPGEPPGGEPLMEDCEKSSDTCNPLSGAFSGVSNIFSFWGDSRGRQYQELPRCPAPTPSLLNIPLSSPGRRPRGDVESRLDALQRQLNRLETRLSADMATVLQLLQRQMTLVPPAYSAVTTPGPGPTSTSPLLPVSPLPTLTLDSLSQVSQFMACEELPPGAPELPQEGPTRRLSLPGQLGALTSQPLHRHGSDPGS
hERG current, sequence (Q12809 whole entry): as the sequence (Q12809 whole entry, the tested form may be a part) above

With `COc1ccc2c(c1)CN(C(=O)C(=O)O)CCS2` [S36] the “plasma levels preventing exercise-induced sudden cardiac death compared with JTV-519” value (FKBP12.6+/− mice; mouse, in vivo) was “lower plasma levels compared with JTV-519”, the “cardiac arrhythmias and sudden cardiac death” value (FKBP12.6+/− mice; plasma level 0.02 μM) was “prevent” and the “cardiac arrhythmias and sudden cardiac death” value (FKBP12.6+/− mice; plasma level 1 μM) was “prevent”. It also gave an inhibition at 10 µM (hERG; 10 μM, read-out: Mean percent inhibition of hERG current) of 0.7%, an inhibition at 100 µM (hERG; 100 μM, read-out: Mean percent inhibition of hERG current) of 0.9% and an inhibition at 100 µM (hERG; highest concentration tested (100 μM), read-out: hERG current inhibition at the highest concentration tested) of under 50%. For the same molecule, the “block of HERG K+ channel (IKr)” value (hERG current) was “does not block”, the “effect on hERG outward tail current” value (hERG current; 100 μM) was “minimally reduced” and the “potency at increasing the binding of FKBP12.6 and RyR2 compared with JTV-519” value (PKA-phosphorylated RyR2) was “more potent”. It also gave an EC50 (PKA-phosphorylated RyR2; compound 0.5-1000 nM, Michaelis-Menten curve fitting) of 15 nM.
With `COc1ccc2c(c1)CN(C)CCS2` [S107] the “acute effect on WT treadmill exercise performance” value (C57BL/6J mice; 2.5 ug/hr osmotic pump, WT mice) was “no acute effect”, the “treadmill exercise capacity (time to failure) vs vehicle” value (C57BL/6J mice; Day 21, WT mice, p<0.05) was “relatively protected against a decline in treadmill exercise capacity” and the treadmill performance (C57BL/6J mice; mice deficient in calstabin1) was “failed to improve treadmill performance”. For the same molecule, the body weight (C57BL/6J mice; throughout trial) was “did not result in a change”, the “plasma CPK activity levels” value [1] was “reduced close to the levels observed in sedentary controls” and the “binding of calstabin to RyR in whole brain microsomes” value (RyR) was “restores the binding of calstabin to RyR”.
